Measured values: patent US6432413B1, “Functional improvements in Fahr disease” (Wayne State University, priority 1998, dated 2002)

Experiments:
Type in all cases: in vivo, human
[1] = test system: patient with Fahr disease; assay: Previous drug treatments of the same Fahr disease patient; settings: before the study
Text: Prior to initiating and throughout the study, they were maintained on the same doses of baclofen, pergolide, lorazepam, naproxen, diltiazem, probanthiline bromide, and hyoscyamine sulfate. They were placed on isosorbide dinitrate 2 months into the study for ischemic heart disease.

[2] = test system: patient with familial, idiopathic cerebral calcinosis of the basal ganglia (Fahr disease); assay: Treatment of a patient with Fahr disease: serial neurologic examinations, timed speech and gait, Blessed Dementia Scale
Text: FIG. 2 is a series of graphs showing the effect of treatment on speech and gait. Timed measurements of speech (counting from 1-20 or 20-1) and gait (walking 15 feet and back) were made during two treatment cycles with disodium etidronate. The start and stop times indicate the times at which the medication was begun and discontinued, respectively. Each zero time point for counting 1-20 and walking 15 feet and back represents an average of 2 separate measurements, taken 2 weeks apart.
The patient is a person with hypertension and osteoarthritis who presented with transient right hemiparesis and dysarthria. […] Their major neurologic disabilities prior to treatment were slowness of gait and speech, rigidity, spasticity, cerebellar ataxia, dystonia, and dysphagia. They scored 6 points out of a possible 37 points on the right side of the Blessed Dementia Scale, which measures memory and concentration (6). A score of 0 points is without error. They had been having frequent emotional outbursts and inappropriate hypersexuality.
(§1) After obtaining baseline measurements and informed consent, the patient was begun on 15 mg/kg of disodium etidronate given once daily for two 6 month periods, separated by a 6 month period off of the drug, which was carried out as an internal control and to allow for normal bone mineralization. Serial neurologic examinations were performed by the same physician, and included three quantitative measurements: counting from 1-20, counting from 20-1, and walking 15 feet and back. Instructions were given with the same amount of encouragement for each of the serial measurements. Duplicate measures of counting 1-20 and walking taken two weeks apart were averaged to produce baseline values. There was little variation between the duplicate measures. Baseline and follow-up videotapes of the neurologic exam and CAT scans, to quantify the amount of cerebral calcification, were obtained in a uniform manner.

[3] = Side effects during treatment of the Fahr disease patient; settings: 15 mg/kg once daily
Procedure: as §1
For example, they could button their shirts, which they could not do previously.

[4] = test system: cerebral calcification; assay: Quantitation of cerebral calcification by serial CAT scans
Text: FIG. 1 is a series of axial CAT scans and 3-dimensional reconstructions of basal ganglia calcification. Panels A-D show the extent of cerebral calcification on axial CAT scan images showing involvement of the basal ganglia, thalamus, and cerebellum. Panels E-H are 3-dimensional reconstructions of the basal ganglia, thalami, and pineal gland in different projections. The patient is directly facing the viewer in Panel E, turning to the left by 30 degrees in Panel F, and by 60 degrees in Panel G. Panel H is a projection looking from above and behind the patient, in the same orientation as the CAT scans described above. […]
FIG. 3 is a graph showing quantitation of cerebral calcification. […]
Quantitative measurements of cerebral calcification were obtained using contiguous regions of calcification, defined as those containing pixels greater than 50 Hounsfield units, on each 3 mm coronal image. […]
After obtaining baseline measurements and informed consent, the patient was begun on 15 mg/kg of disodium etidronate given once daily for two 6 month periods, separated by a 6 month period off of the drug, which was carried out as an internal control and to allow for normal bone mineralization. Serial neurologic examinations were performed by the same physician, and included three quantitative measurements: counting from 1-20, counting from 20-1, and walking 15 feet and back. […]

[5] = second six month course of treatment

O=C1Nc2ccc(Cl)cc2C(c2ccccc2Cl)=NC1O (centres unmarked) [lorazepam]
improvement with previous drug treatment [1]: minimal improvement

CC(O)(P(=O)(O)O)P(=O)(O)O [disodium etidronate]
gait and speech after stopping the medication ([2]; 6 month period off of the drug): significant deterioration in their gait, but little loss in the gains made with their speech | speech, attention span, emotional outbursts and inappropriate sexual behavior as felt by the patient's family ([2]; after one month on 15 mg/kg once daily): their speech had become clearer, their attention span improved, and their emotional outbursts and inappropriate sexual behavior ceased | bradykinesia and emotional lability ([2]; after treatment): clearly improved | spasticity, cerebellar ataxia, and dystonia ([2]; after treatment): unchanged | Blessed Dementia Scale score ([2]; eighteen months after beginning treatment, previous score 6, 0 points is without error): 2 | gait and fine motor skills ([2]; first treatment period, 15 mg/kg once daily): His gait also improved, together with fine motor skills | increase in the speed of speech and gait (counting 1-20, 20-1, walking 15 feet and back) ([2]; over the first six months of treatment): two-fold increase | counting from 1-20 [2, 5]: improvement | counting from 20-1 [2, 5]: some deterioration | gait [2, 5]: again improved | speech [2, 5]: did not change appreciably | other measurements of the speed of motor movement (rapid finger tapping and knee patting) ([2]; videotape before medication vs end of first six month treatment): improved considerably | speech (rate and clarity) ([2]; within four months of treatment, 15 mg/kg once daily): their speech became more rapid and clear | side effects [3]: no side effects from the medication, except for transient elevations in serum phosphate | shape and size of the cerebral calcification, qualitative comparison of CAT scans and 3-dimensional reconstructions ([4]; after treatment): did not demonstrate any change | brain calcium content, quantitative measurements from serial CAT scans (density x area) ([4]; before treatment vs after first (6 months) and second (18 months) treatment periods): did not show any reduction in brain calcium content, but perhaps a small increase

NCC(CC(=O)O)c1ccc(Cl)cc1 (centres unmarked) [baclofen]
improvement with previous drug treatment [1]: minimal improvement

CCCN1C[C@H](CSC)C[C@@H]2c3cccc4[nH]cc(c34)C[C@H]21 [pergolide]
improvement with previous drug treatment [1]: minimal improvement

carbidopa-levodopa
improvement with previous drug treatment [1]: minimal improvement
